Test results reported in US8017828B2, “Utilization of rare sugars in plant or microorganism” (Shikoku Research Institute Incorporated, priority 2004, dated 2011).

Legend:
Primula = assay: Drying stress of Primula after foliar spraying; type: in vivo; conditions: foliar spraying of 0.2% (w/v) solution
Description: By using Primula, an effect of spraying D-psicose on a drying stress was examined. By using commercially available Primula planted in a pot, foliar spraying of water, a 0.2% (w/v) D-glucose solution or a 0.2% (w/v) D-psicose solution was carried out on the whole plant. After irrigation was sufficiently carried out from the lower part of the pot, the plant was left in a condition that no irrigation was carried out, and a wilted condition thereof was observed.

Bletilla striata = assay: Growth and bulb formation of Bletilla striata seedlings in tissue culture; type: in vivo
Description: Seedling plants of Bletilla striata obtained by sterile sowing were used in an experiment.
As for the Bletilla striata, by using ½ strength MS medium supplemented with D-psicose, D-allose, D-glucose or D-frucose at a concentration of from 0.005% to 0.05% (w/v), the seedling plants were aseptically transplanted on Feb. 27, 2003, and then, cultivation was carried out under the same conditions as those of the strawberry in Example 3. Then, on Jun. 30, 2003, a survey was carried out with regard to the growth conditions of aerial part and underground part, the number of buds, the ratio of bulb formation, the bulb size and the like.

[1] = test system: cherry tomato plant “mini carol”; assay: Hydroponic growth of cherry tomato with 0.05 or 0.5 mM sugar, 10 days; type: in vivo
Description: Subsequently, a cherry tomato plant “mini carol” was transplanted for permanent planting to a hydroponic apparatus, and a total of 7 treated plots in which a plot without addition (control plot) was added to 6 treated plots with the use of a nutrient solution supplemented with 0.05 mM or 0.5 mM D-psicose, D-fructose or mannitol were prepared. A survey was carried out with regard to the growth at 10 days after the permanent planting. […] The stem diameter was the smallest in the case of 0.5 mM D-psicose. The number of leaves was the smallest in the case of 0.5 mM D-psicose and 0.5 mM mannitol. The root length was the smallest in the case of 0.5 mM psicose.

[2] = test system: stress/hormone response genes; type: in vivo, Lotus japonicus
Description: A pattern of induction of a gene in the case where D-psicose was added to a medium for Lotus japonicus was examined by an experiment using a cDNA array.
Lotus japonicus was germinated from a seed and cultivated in an L&B medium (hydroponic culture medium). When the seed was germinated, Mesorhizobium loti was also inoculated. This condition was applied to both a control plot and a plot of D-psicose addition. With regard to the array, a microarray on which 14,000 clones were immobilized by using a Lotus japonicus cDNA array was used. After test plants were germinated, they were cultivated with an L&B medium supplemented with D-psicose or without addition for 1 week in a growth cabinet (22° C., 30,000 Lux). After total RNA was extracted from the plant body, it was labeled with ^33P in the process where it was converted to cDNA, and then hybridization was carried out. Reading was carried out using STORM 850 and analysis was carried out with Array Vision.

Salsola komarovii = assay: Seed germination, short-time and continuous treatment (Experiment 2); type: in vivo
Description: In order to clarify an effect of a short-time treatment, 50 seeds of Salsola komarovii, tomato (Home Momotaro) and sunny lettuce (Red Wave), and 20 seeds of morning glory (Tairin Zaki Kongo) were immersed in any of deionized water, 1% D-psicose, 1% D-allose and 1% L-galactose for 24 hours (25° C., dark), respectively, then, they were lightly washed with deionized water. Then, the seeds were sown in a dish with a diameter of 9 cm having a filter paper placed therein, and germinated under the same condition by poring 5 to 10 ml of deionized water therein. Further, for the comparison, a continuous treatment with 1% D-psicose was carried out in accordance with the same procedure.

[3] = test system: Fusarium oxysporum, Glomerella cingulata, Verticillium dahliae and Botrytlis cinerea; assay: Mycelial elongation of plant pathogenic bacteria on agar with rare sugar; type: cell-based; conditions: 0.05% (w/v) in agar medium, 23° C., 7 days
Description: By using as targets, Fusarium oxysporum, Glomerella cingulata, Verticillium dahliae and Botrytlis cinerea, which are typical plant pathogenic bacteria, an effect of a rare sugar on mycelial elongation was examined.
As the test bacterial strains, IFO 31213 strain, IFO 6425 strain, IFO 9765 strain and IFO 9760 strain were used.
After the cultivation, the length of the extending mycelium was measured.

[4] = test system: cherry tomato plant “petite”; assay: Hydroponic growth of cherry tomato with 0.05 or 0.5 mM sugar, 40 days; type: in vivo; conditions: until 40 days
Description: Further, on Dec. 18, 2003, a cherry tomato plant “petite” was transplanted for permanent planting to a hydroponic apparatus, and a total of 7 treated plots in which a plot without addition was added to 6 treated plots with the use of a nutrient solution supplemented with 0.05 mM or 0.5 mM D-psicose, D-fructose or mannitol were prepared. A survey was carried out with regard to the growth until 40 days after the permanent planting. As a result, the stem length was the shortest in the cases of 0.05 mM D-psicose and 0.05 mM D-fructose. Although a significant difference in the stem diameter was not observed among treated plots, however, a tendency was observed that the stem was slightly thinner in the treated plot of any of the sugars at a high concentration. A significant difference in the number of leaves was not observed among treated plots.

[5] = test system: strawberry plant (variety: “smile ruby”); assay: Growth of strawberry seedlings in tissue culture medium with sugar; type: in vivo; conditions: increased (high) concentration in medium

`O=C[C@H](O)[C@@H](O)[C@H](O)[C@H](O)CO` [D-glucose, reference compound] was tested, and the “time until wilt of the whole plant without irrigation” value (Primula) was “one day”, the Aerial part weight (Bletilla striata; sugar 0.005% in medium) was 0.15 g and the Bulb size (Bletilla striata; sugar 0.005% in medium) was 5.1 mm. For the same compound, the Maximum plant length (Bletilla striata; sugar 0.005% in medium) was 7.3 cm, the Maximum root length (Bletilla striata; sugar 0.005% in medium) was 4.9 cm and the Number of buds (Bletilla striata; sugar 0.005% in medium) was 3.7. For the same compound, the Number of leaves (Bletilla striata; sugar 0.005% in medium) was 4.1, the “Ratio of bulb formation” value (Bletilla striata; sugar 0.005% in medium) was 37% and the Underground part weight (Bletilla striata; sugar 0.005% in medium) was 0.13 g. The Aerial part weight (Bletilla striata; sugar 0.02% in medium) was 0.20 g, the Bulb size (Bletilla striata; sugar 0.02% in medium) was 5.7 mm and the Maximum plant length (Bletilla striata; sugar 0.02% in medium) was 7.2 cm. It also gave a Maximum root length (Bletilla striata; sugar 0.02% in medium) of 5.1 cm, a Number of buds (Bletilla striata; sugar 0.02% in medium) of 3.4 and a Number of leaves (Bletilla striata; sugar 0.02% in medium) of 3.9. The “Ratio of bulb formation” value (Bletilla striata; sugar 0.02% in medium) was 59%, the Underground part weight (Bletilla striata; sugar 0.02% in medium) was 0.18 g and the Aerial part weight (Bletilla striata; sugar 0.05% in medium) was 0.18 g. It also gave a Bulb size (Bletilla striata; sugar 0.05% in medium) of 5.2 mm, a Maximum plant length (Bletilla striata; sugar 0.05% in medium) of 6.5 cm and a Maximum root length (Bletilla striata; sugar 0.05% in medium) of 6.1 cm. For the same compound, the Number of buds (Bletilla striata; sugar 0.05% in medium) was 3.4, the Number of leaves (Bletilla striata; sugar 0.05% in medium) was 4.0 and the “Ratio of bulb formation” value (Bletilla striata; sugar 0.05% in medium) was 45%. It also gave an Underground part weight (Bletilla striata; sugar 0.05% in medium) of 0.14 g.
For `O=C(CO)[C@H](O)[C@H](O)[C@H](O)CO` [D-psicose], the “stem length, rank among 7 treated plots” value ([1]; 0.05 mM) was “the second longest”, the “fresh and dry aerial part weights, rank among 7 treated plots” value ([1]; 0.5 mM) was “the smallest” and the “number of leaves, rank among 7 treated plots” value ([1]; 0.5 mM) was “the smallest”. For the same compound, the “root length, rank among 7 treated plots” value ([1]; 0.5 mM) was “the smallest”, the “stem diameter, rank among 7 treated plots” value ([1]; 0.5 mM) was “the smallest” and the “stem length, rank among 7 treated plots” value ([1]; 0.5 mM) was “the shortest”. The “time until wilt of the whole plant without irrigation” value (Primula) was 2 days, the “activation of gene group that responds to pathogenic bacteria and environmental stresses” value ([2]; 5 mM in medium, first one week) was “activated” and the “expression of a gene group regulated by plant hormones such as auxin” value ([2]; about 0.1 mM in medium) was “an increase or a decrease in the expression”. For the same compound, the “Expression ratio (D-psicose/water): auxin response factor 6 (ARF6)” value ([2]; psicose: 0.1 mM, 1 week) was 2.5, the “Expression ratio (D-psicose/water): auxin-binding protein T85 precursor (ABP)” value ([2]; psicose: 0.1 mM, 1 week) was 2.4 and the “Expression ratio (D-psicose/water): chitinase” value ([2]; psicose: 0.1 mM, 1 week) was 2.2. The “Expression ratio (D-psicose/water): chitinase (EC 3.2.1.14) class II” value ([2]; psicose: 0.1 mM, 1 week) was 2.2, the “Expression ratio (D-psicose/water): glycine-rich RNA-binding, abscisic acid-inducible protein” value ([2]; psicose: 0.1 mM, 1 week) was 2.5 and the “Expression ratio (D-psicose/water): metal stress-regulated protein SR7” value ([2]; psicose: 0.1 mM, 1 week) was 2.4. The “Expression ratio (D-psicose/water): pathogen-inducible alpha-dioxygenase” value ([2]; psicose: 0.1 mM, 1 week) was 2.4, the “Expression ratio (D-psicose/water): putative WD-40 repeat protein” value ([2]; psicose: 0.1 mM, 1 week) was 2.2 and the “Expression ratio (D-psicose/water): turgor-responsive protein 26G” value ([2]; psicose: 0.1 mM, 1 week) was 2.3. The “Expression ratio (D-psicose/water): ACC oxidase” value ([2]; psicose: 5 mM, 1 week) was 5.1, the “Expression ratio (D-psicose/water): PDR5-like ABC transporter” value ([2]; psicose: 5 mM, 1 week) was 10.8 and the “Expression ratio (D-psicose/water): PR-10-1 protein” value ([2]; psicose: 5 mM, 1 week) was 5.5. For the same compound, the “Expression ratio (D-psicose/water): auxin response factor like protein” value ([2]; psicose: 5 mM, 1 week) was 5.6, the “Expression ratio (D-psicose/water): chalcone synthase” value ([2]; psicose: 5 mM, 1 week) was 5.4 and the “Expression ratio (D-psicose/water): class I chitinase” value ([2]; psicose: 5 mM, 1 week) was 13.2. The “growth when the concentration added to the medium was increased” value (Bletilla striata; increased (high) concentration in medium) was “the growth thereof was delayed”, the Aerial part weight (Bletilla striata; sugar 0.005% in medium) was 0.24 g and the Bulb size (Bletilla striata; sugar 0.005% in medium) was 6.2 mm. For the same compound, the Maximum plant length (Bletilla striata; sugar 0.005% in medium) was 9.3 cm, the Maximum root length (Bletilla striata; sugar 0.005% in medium) was 4.4 cm and the Number of buds (Bletilla striata; sugar 0.005% in medium) was 4.1. For the same compound, the Number of leaves (Bletilla striata; sugar 0.005% in medium) was 3.9, the “Ratio of bulb formation” value (Bletilla striata; sugar 0.005% in medium) was 45% and the Underground part weight (Bletilla striata; sugar 0.005% in medium) was 0.26 g. It also gave an Aerial part weight (Bletilla striata; sugar 0.02% in medium) of 0.28 g, a Bulb size (Bletilla striata; sugar 0.02% in medium) of 5.6 mm and a Maximum plant length (Bletilla striata; sugar 0.02% in medium) of 9.9 cm. It also gave a Maximum root length (Bletilla striata; sugar 0.02% in medium) of 4.8 cm, a Number of buds (Bletilla striata; sugar 0.02% in medium) of 3.3 and a Number of leaves (Bletilla striata; sugar 0.02% in medium) of 3.9. For the same compound, the “Ratio of bulb formation” value (Bletilla striata; sugar 0.02% in medium) was 65%, the Underground part weight (Bletilla striata; sugar 0.02% in medium) was 0.22 g and the Aerial part weight (Bletilla striata; sugar 0.05% in medium) was 0.20 g. For the same compound, the Bulb size (Bletilla striata; sugar 0.05% in medium) was 5.1 mm, the Maximum plant length (Bletilla striata; sugar 0.05% in medium) was 7.3 cm and the Maximum root length (Bletilla striata; sugar 0.05% in medium) was 5.3 cm. The Number of buds (Bletilla striata; sugar 0.05% in medium) was 4.0, the Number of leaves (Bletilla striata; sugar 0.05% in medium) was 3.9 and the “Ratio of bulb formation” value (Bletilla striata; sugar 0.05% in medium) was 67%. The Underground part weight (Bletilla striata; sugar 0.05% in medium) was 0.13 g, the germination (Salsola komarovii; continuous treatment with 1%) was “promoted” and the germination rate (Salsola komarovii; immersed in 1% solution for 24 hours, in the end, DW 28%) was 28%. The “inhibitory effect on mycelial elongation” value [3] was “has an effect on inhibiting mycelial elongation”, the “stem length, rank among 7 treated plots” value ([4]; 0.05 mM) was “the shortest” and the “underground part weight, rank among 7 treated plots” value ([4]; 0.5 mM) was “the smallest”. The “growth when the concentration added to the medium was increased” value [5] was “the growth thereof was delayed”.
